In one experiment the target is T1, rat BRS-3 (Rattus norvegicus, UniProt Q8K418).
T1 construct: utilized to PCR amplify full-length rat BRS-3 cDNA; expressed in transfected cells; host or cells: 293EBNA cells, pE3 expression vector
T1 sequence (Q8K418 1-399): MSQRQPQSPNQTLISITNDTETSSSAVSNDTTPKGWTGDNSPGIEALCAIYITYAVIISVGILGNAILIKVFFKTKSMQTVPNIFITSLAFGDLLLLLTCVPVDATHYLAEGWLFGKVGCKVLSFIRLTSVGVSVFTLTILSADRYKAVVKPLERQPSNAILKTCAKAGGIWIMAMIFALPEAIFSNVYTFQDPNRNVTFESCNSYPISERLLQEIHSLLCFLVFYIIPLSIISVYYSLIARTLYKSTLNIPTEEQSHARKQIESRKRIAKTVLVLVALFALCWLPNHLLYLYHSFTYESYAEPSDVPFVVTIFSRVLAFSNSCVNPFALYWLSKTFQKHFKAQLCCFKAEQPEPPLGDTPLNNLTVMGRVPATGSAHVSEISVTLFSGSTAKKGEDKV
Kind of experiment: Radioligand binding assay with 125I-dYB. The method, then:
(§1) Peptide dYB (dY-Q-W-A-V-(beta-A)-H-F-Nle-amide) (SEQ ID NO:10) was made by Research Genetics (Huntsville, Ala.) and custom labeled by NEN Life Science (NEN, Boston, Mass.) with a ^125I on the dY phenyl ring. The specific activity of ^125I-dYB is 2200 ci/mmol. The 293EBNA cells expressing wild type or mutant BRS-3 grown in 150-mm^2 dishes were harvested in binding buffer (50 mM HEPES, pH 7.4, 5 mM MgCl2, 0.1% BSA) and disrupted with Dounce homogenization.
(§2) After removal of cell nuclei by a low speed centrifugation (1000×g) step, the cell membrane proteins were collected by centrifugation at 35,000×g for 20 minutes. The membrane protein concentration was determined by the Bradford method using BSA as standard.
(§3) For binding assays, ˜20 ug membrane proteins were incubated with 0.25 nM ^125I-dYB and various concentrations of competitors in 200 ul binding buffer. After a 2 hr incubation at room temperature, the binding reaction was terminated by filtering through a GF/c filter-mate and washing the filter with binding buffer using Packard 96-well Topcount Harvester. The amount of radioligand bound to the receptor was determined by measurement of the radioactivity on the filter through liquid scintillation counting. The non-specific binding was defined as the binding in the presence of 1 uM unlabeled dYB.

For another experiment, the target named is T2, human BRS-3 (Homo sapiens, UniProt P32247).
T2 construct: expressed in transfected cells; host or cells: 293EBNA cells, pE3 expression vector
T2 sequence (P32247 1-399): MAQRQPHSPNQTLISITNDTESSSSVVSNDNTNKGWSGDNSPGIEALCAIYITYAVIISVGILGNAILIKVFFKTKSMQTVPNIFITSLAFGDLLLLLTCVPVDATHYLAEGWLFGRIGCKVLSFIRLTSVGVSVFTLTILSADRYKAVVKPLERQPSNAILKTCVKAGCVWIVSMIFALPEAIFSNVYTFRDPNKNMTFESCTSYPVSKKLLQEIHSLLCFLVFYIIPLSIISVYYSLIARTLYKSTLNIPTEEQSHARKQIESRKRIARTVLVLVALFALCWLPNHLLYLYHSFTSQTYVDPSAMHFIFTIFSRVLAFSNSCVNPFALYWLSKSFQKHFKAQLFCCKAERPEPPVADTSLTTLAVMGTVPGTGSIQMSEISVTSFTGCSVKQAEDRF
Kind of experiment: Radioligand binding assay with 125I-dYB. The procedure:
as §1, §2, §3

Non-standard residues stand in square brackets, D forms with d. Residues, ends and D or L forms follow the SMILES beside them. Nle = CCCC[C@H](N)C(=O)O; βAla = NCCC(=O)O

With `CCCC[C@H](NC(=O)[C@H](Cc1ccccc1)NC(=O)[C@H](Cc1c[nH]cn1)NC(=O)CCNC(=O)[C@@H](NC(=O)[C@H](C)NC(=O)[C@H](Cc1c[nH]c2ccccc12)NC(=O)[C@H](CCC(N)=O)NC(=O)[C@H](N)Cc1ccc(O)cc1)C(C)C)C(N)=O` [dYB, [D-Tyr6-betaAla11-Phe13-Nle14] bombesin (6-14)] (H-[dY]QWAV[βAla]HF[Nle]-NH2), the “specific binding to rat BRS-3” value at rat BRS-3 is “undetectable”.

The Ki is a measure of affinity in units of concentration, obtained from inhibition or displacement. The low end stands for tighter binding, the high end for weaker binding. At human BRS-3, `CCCC[C@H](NC(=O)[C@H](Cc1ccccc1)NC(=O)[C@H](Cc1cnc[nH]1)NC(=O)CCNC(=O)[C@@H](NC(=O)[C@H](C)NC(=O)[C@H](Cc1c[nH]c2ccccc12)NC(=O)[C@H](CCC(N)=O)NC(=O)[C@H](N)Cc1ccc(O)cc1)C(C)C)C(N)=O` [dYB, [D-Tyr6-betaAla11-Phe13-Nle14] bombesin (6-14)] (H-[dY]QWAV[βAla]HF[Nle]-NH2) showed a Ki of 1.8 ± 0.6 nM.

These data come from patent US20050222402A1, “Dna encoding rat bombesin receptor subtype-3 (brs-3) and uses thereof” (priority 2001, published 2005).
